Data on 4 compounds can be found in publication PMC10508264, “Exploring the antioxidant, antimicrobial, cytotoxic and biothermodynamic properties of novel morpholine derivative bioactive Mn(II), Co(II) and Ni(II) complexes – combined experimental and theoretical measurements towards DNA/BSA/SARS-CoV-2 3CL^Pro” (RSC Medicinal Chemistry, 2023).

What is called IC50 is the concentration that gives 50% inhibition.

The nature of test [1]: Hydroxyl radical scavenging assay. The test is classed as biochemical. Particulars: for % Inhibition, hydroxyl radical: 230 nm.
Test [2] concerns the target BSA (Bos taurus, UniProt P02769). It counts as binding, bovine. Particulars: for Δλ (nm), blue shift of BSA band: 25 μM BSA, compound 0–25 μM; for Binding constant Kapp by BH method (Kb, BSA): 25 °C; for Gibb's free energy change of BSA binding: T = 298 K.
The test system of test [3] is CT-DNA. The experiment in a line: DNA binding by viscometric (hydrodynamic) technique. The method, then:
The hydrodynamic properties were measured using an Ostwald viscometer with the help of a thermostat (25 ± 0.1 °C). The specific viscosity of DNA was also measured in the presence and absence of the test samples.[13,30]
Generally, when the major/minor groove binding, electrostatic, partial, and non-classical interaction modes are involved between chemical substances and DNA base pairs, the final DNA relative viscosity remains unchanged or undergoes a very negligible change due to reducing the contour length of DNA. When the intercalation binding modes are involved between a chemical substance and DNA base pairs via π–π stacking interactions and hydrophobic forces, an increase in relative viscosity is noted due to a rise in the contour length of DNA. Moreover, for the purpose of observing alterations in the CT-DNA helical structure, the viscosity findings for CT-DNA, various concentrations of chemical substances present, and EtBr were recorded. It was also noted that the absolute viscosity rose consistently along with the incremental concentration of each substance at the fixed DNA concentration. As a result of the strong binding mode of intercalation, the contour length of the double-helix DNA rises.[72] The obtained results are also compared with those of the classical intercalator (EB). The affinity interaction and their slope values were observed from the relative specific viscosity (η/η0)^1/3 plotted as a straight line contrasting [compound]/[DNA] and absolute specific viscosity of DNA in the presence or absence of chemical substances was evaluated using eqn (11) (Table 3). In the experiment, it was clearly noted that the slope values for all samples increased due to the rising binding affinity. The evaluated slopes were in the following sequence: (EB) 1.215 > (2) 0.860 > (3) 0.801 > (1) 0.662 > (HL) 0.490 (Fig. S21 ^† and Table 3). […] Due to the existence of 2,2′-bipyridine and the morpholine-fused aromatic planar systems, compounds can interact with DNA robustly via intercalation. The outcomes agreed with the observed outcomes of electronic absorption spectral characteristics.
11 [drawing 21] where η and η0 represent the specific viscosity of DNA in the presence of the complex and the specific viscosity of DNA alone, t0, tDNA and tcomplex represent the average flow time of the Tris–HCl buffer solution, the average flow time of the DNA alone solution, and the average flow time of DNA interacted with the samples, respectively. Error limit ± 2.5% (P < 0.025). […]
2.2.4. Assessment of DNA affinity by hydrodynamic technique
Hydrodynamic properties were performed using an Ostwald viscometer with the help of a thermostat (25 ± 0.1 °C). The experiment was performed of all samples, including ethidium bromide at various concentrations (20, 40, 60, 80, 100 µM) and each test compound was mixed with the deoxyribonucleic acid solution (100 µM) in the Ostwald viscometer. With a help of digital stopwatch, average flow time was gauged three times for each addition, and the specific viscosity of deoxyribonucleic acid was also measured in the presence and absence of test samples. […]
Also, the emission spectral titration for all compounds was also carried out at a fixed concentration (25 μM) of BSA with an incremental concentration of substances (0–25 µM)

The subject of test [4] is Staphylococcus Aureus. The experiment in a line: Agar disc diffusion, strain F. It counts as cell-based. Further details: Inhibition%: concentration or dose not given beside the values. Particulars: for Diameter of clear zone inhibition: control 6 mm. On the technique in general: A growth-free zone around the sample is the usual read-out of agar diffusion tests.

As for `[Mn+2].[O-]c1ccccc1N=Cc1ccc(N2CCOCC2)cc1.[O-]c1ccccc1N=Cc1ccc(N2CCOCC2)cc1.c1ccc(-c2ccccn2)nc1` [(1)], the “% Inhibition, hydroxyl radical” value in test [1] (40 µM) came to 10.08%; in test [1] (80 µM), 17.89%; in test [1] (120 µM) it was 28.56%; in test [1] (160 µM), 34.04%; in test [1] (200 µM), 44.92%; in test [1] (240 µM), 56.03%. Also, the “Δλ (nm), blue shift of BSA band” value in test [2] amounted to 03 nm. The “Binding constant Kapp by BH method (Kb, BSA)” value (“Binding constant Kapp” below) in test [2] was 12429 M⁻¹. The “Gibb's free energy change of BSA binding” value in test [2] was -5.5827 kcal/mol. In addition, the “Slope of (η/η0)^1/3 vs [compound]/[DNA]” value in test [3] was determined as 0.662. Further, the “Relative specific viscosity (η/η0)^1/3” value in test [3] ([complex]/[DNA] = 0.2) was found to be 0.66; in test [3] ([complex]/[DNA] = 0.4), 0.78; in test [3] ([complex]/[DNA] = 0.6), 0.88; in test [3] ([complex]/[DNA] = 0.8) it was 1.02; in test [3] ([complex]/[DNA] = 1.0), 1.12. This compound also yielded an Inhibition% in test [4] of 40%. The “Diameter of clear zone inhibition” value in test [4] was found to be 10 mm.

`[Co+2].[O-]c1ccccc1N=Cc1ccc(N2CCOCC2)cc1.[O-]c1ccccc1N=Cc1ccc(N2CCOCC2)cc1.c1ccc(-c2ccccn2)nc1` [(2)] showed an IC50 in test [1] of 200 µM. The “% Inhibition, hydroxyl radical” value in test [1] (40 µM) is 08.02%; in test [1] (80 µM), 15.24%; in test [1] (120 µM) it was 26.23%; in test [1] (160 µM), 36.41%; in test [1] (200 µM), 46.17%; in test [1] (240 µM), 56.85%. Moreover, the “Δλ (nm), blue shift of BSA band” value in test [2] is 02 nm. In test [2], the “Binding constant Kapp” value turned out to be 30937 M⁻¹. In addition, the “Gibb's free energy change of BSA binding” value in test [2] was -6.12271 kcal/mol. Further, in test [3], the “Slope of (η/η0)^1/3 vs [compound]/[DNA]” value amounted to 0.860. Further, the “Relative specific viscosity (η/η0)^1/3” value in test [3] ([complex]/[DNA] = 0.2) is listed as 0.77; in test [3] ([complex]/[DNA] = 0.4), 0.88; in test [3] ([complex]/[DNA] = 0.6) it was 1.05; in test [3] ([complex]/[DNA] = 0.8), 1.18; in test [3] ([complex]/[DNA] = 1.0), 1.48. The compound also showed an Inhibition% in test [4] of 45%. For the same compound, in test [4], the “Diameter of clear zone inhibition” value was 11 mm.

In the case of `[Ni+2].[O-]c1ccccc1N=Cc1ccc(N2CCOCC2)cc1.[O-]c1ccccc1N=Cc1ccc(N2CCOCC2)cc1.c1ccc(-c2ccccn2)nc1` [(3)], the “% Inhibition, hydroxyl radical” value in test [1] (40 µM) is recorded as 07.67%; in test [1] (80 µM), 15.86%; in test [1] (120 µM), 26.12%; in test [1] (160 µM), 35.43%; in test [1] (200 µM), 45.56%; in test [1] (240 µM), 55.75%. For the same compound, in test [2], the “Δλ (nm), blue shift of BSA band” value was found to be 02 nm. In test [2], the “Binding constant Kapp” value came to 18374 M⁻¹. Also, in test [2], the “Gibb's free energy change of BSA binding” value was -5.81417 kcal/mol. Also, the “Slope of (η/η0)^1/3 vs [compound]/[DNA]” value in test [3] came out at 0.801. Also, the “Relative specific viscosity (η/η0)^1/3” value in test [3] ([complex]/[DNA] = 0.2) is reported as 0.71; in test [3] ([complex]/[DNA] = 0.4), 0.86; in test [3] ([complex]/[DNA] = 0.6), 0.92; in test [3] ([complex]/[DNA] = 0.8) it was 1.11; in test [3] ([complex]/[DNA] = 1.0) it was 1.31. The same compound showed an Inhibition% in test [4] of 40%. In addition, in test [4], the “Diameter of clear zone inhibition” value worked out at 10 mm.

As for `Oc1ccccc1N=Cc1ccc(N2CCOCC2)cc1` [(HL), 2-(4-morpholinobenzylideneamino)phenol], the “% Inhibition, hydroxyl radical” value is listed as 07.26% in test [1] (40 µM); 14.43% in test [1] (80 µM); 25.52% in test [1] (120 µM); 33.86% in test [1] (160 µM); 40.73% in test [1] (200 µM); 50.68% in test [1] (240 µM). Also, in test [2], the “Δλ (nm), blue shift of BSA band” value was 02 nm. Further, the “Binding constant Kapp” value in test [2] turned out to be 7556 M⁻¹. Moreover, in test [2], the “Gibb's free energy change of BSA binding” value was -5.28791 kcal/mol. Moreover, the “Slope of (η/η0)^1/3 vs [compound]/[DNA]” value in test [3] is 0.490. Also, the “Relative specific viscosity (η/η0)^1/3” value in test [3] ([complex]/[DNA] = 0.2) is listed as 0.61; in test [3] ([complex]/[DNA] = 0.4), 0.67; in test [3] ([complex]/[DNA] = 0.6), 0.75; in test [3] ([complex]/[DNA] = 0.8), 0.85; in test [3] ([complex]/[DNA] = 1.0), 1.01. The same compound had an Inhibition% in test [4] of 33%. For the same compound, the “Diameter of clear zone inhibition” value in test [4] stood at 09 mm.
